PMC7218274 (Antiviral Chemistry & Chemotherapy, 2020)

Legend:
[1] = MTT cytotoxicity assay, MT-2 cells; assay type: cell-based, human; conditions: human, MTT, mean ± 1 SD, read-out: CC50 (50% cytotoxicity concentration)
Procedure: (§1) MT-2 cells and A549 cells were mixed with HAdV-19, 2× 10^5 cells/mL with 10^4 TCID50/mL and 1× 10^5 cells/mL with 3 × 10^3 TCID50/mL, respectively, in plate wells in the presence or absence of various concentrations of the compounds (MOI: 0.035 for MT-2 cells and 0.021 for A549). The plates were incubated for five days. At the end of the incubation period, CPE was determined using the MTT assay, as described previously.[11],[12] Thus, 25 µl of the MTT solution (7.5 mg/ml) in phosphate-buffered saline (Wako, Japan) was added to each well of the plate. Then, the plate was incubated at 37°C for 2 h. After incubation, 150 µl of medium was removed with care in order not to draw cells. To solubilize the formazan crystals and neutralize the viral infectivity, 100 μl of acidified isopropanol (4 ml concentrated HCl per 1 l of isopropanol) containing 10% (v/v) Triton X-100 was added to each well. Formazan crystals were completely solubilized by pipetting up and down, the absorbance at 560 nm of the wells was read by microplate reader (GloMax, Promega, Japan). The 50% antiviral effective concentration (EC50) was defined as the drug concentration that protects 50% of virus-infected cells from virus-induced cell damage and/or death.[12] The cytotoxicity of each compound was measured in parallel using the MTT assay. The 50% cytotoxicity concentration (CC50) was defined as the drug concentration that reduces cell viability by 50%. Data shown represent mean EC50 and CC50values (±1 standard deviation) derived from the results of two to four independent experiments conducted in duplicate.

[2] = tested on: MT-2 cells; assay: MTT cytotoxicity assay, MT-2 cells; assay type: cell-based, human; conditions: at a concentration of 100 µM
Procedure: as §1

[3] = tested on: HAdV-19; assay: MTT-based antiviral assay, HAdV-19-infected MT-2 cells; assay type: cell-based, Human adenovirus type 19; conditions: for EC50: Human mastadenovirus D, MT2, 120 h, HAdV-19, five days, MTT, mean ± 1 SD, read-out: EC50 (50% antiviral effective concentration)
Procedure: as §1, with “The 50% antiviral effective concentration (EC50) was defined as the drug concentration that protects 50% of virus-infected cells from virus-induced cell damage and/or death.[12]” left out, “50%.” for “50%. Data shown represent mean EC50 and CC50values (±1 standard deviation) derived from the results of two to four independent experiments conducted in duplicate.”

[4] = tested on: HAdV-19; assay: MTT-based antiviral assay, HAdV-19-infected A549 cells; assay type: cell-based, Human adenovirus type 19; conditions: for EC50: Human mastadenovirus D, 120 h, HAdV-19, five days, MTT, mean ± 1 SD, read-out: EC50 (50% antiviral effective concentration)
Procedure: as §1, with “The 50% antiviral effective concentration (EC50) was defined as the drug concentration that protects 50% of virus-infected cells from virus-induced cell damage and/or death.[12]” left out, “50%.” for “50%. Data shown represent mean EC50 and CC50values (±1 standard deviation) derived from the results of two to four independent experiments conducted in duplicate.”

[5] = MTT cytotoxicity assay, A549 cells; assay type: cell-based, human; conditions: human, MTT, mean ± 1 SD, read-out: CC50 (50% cytotoxicity concentration)
Procedure: as §1

[6] = tested on: A549 cells; assay: MTT cytotoxicity assay, A549 cells; assay type: cell-based, human; conditions: at a concentration of 100 µM
Procedure: as §1

SMILES	CC50 at 5 days [1] [µM]	tolerance by cells [2]	SI (selectivity index, ratio of CC50 and EC50) [3]	EC50 [3] [µM]	SI (selectivity index, ratio of CC50 and EC50) [4]	EC50 [4] [µM]	CC50 at 5 days [5] [µM]	tolerance by cells [6]	antiviral activity against HAdV-19 (in words) ([3]; MTT assay)
Nc1ccn(C[C@@H](CO)OCP(=O)(O)O)c(=O)n1 [CDV, (S)-1–(3-hydroxy-2-phosphonylmethoxypropyl)cytosine]	> 100	tolerated	>1.6	62 ± 26	>24	4.2 ± 1.1	> 100	tolerated	–
Cc1cn([C@H]2C[C@H](F)[C@@H](CO)O2)c(=O)[nH]c1=O [FdT, 3′-deoxy-3′-fluorothymidine]	36 ± 5	–	–	1.8 ± 0.2	–	0.03 ± 0.01	7.6 ± 4.2	–	–
Nc1nc(O)c2ncn(COC(CO)CO)c2n1 [GCV, ganciclovir]	> 100	tolerated	>1.7	60 ± 7	>1.9	54 ± 27	> 100	tolerated	–
NC(=O)c1ncn([C@@H]2O[C@H](CO)[C@@H](O)[C@H]2O)n1 [RBV, ribavirin]	18 ± 1	–	–	> 18	–	> 53	53 ± 21	–	little antiviral activity
Nc1ccn([C@H]2CC[C@@H](CO)O2)c(=O)n1 [ddC, 2′,3′-dideoxycytidine]	> 100	tolerated	>38	2.6 ± 0.4	>286	0.35 ± 0.04	> 100	tolerated	–
